Source: PMC6198970, “Safety, efficacy, and dose response of the maturation inhibitor GSK3532795 (formerly known as BMS-955176) plus tenofovir/emtricitabine once daily in treatment-naive HIV-1-infected adults: Week 24 primary analysis from a randomized Phase IIb trial” (PLoS ONE, 2018)

How the values were obtained:
Format in all cases: in vivo, HIV-1-infected adults
HIV-1 [1] = assay: Phase IIb study 205891: plasma HIV-1 RNA response at Week 24 (FDA snapshot, observed); conditions: Week 24, mITT; GSK3532795: range across 60, 120, 180 mg arms; EFV 600 mg; each + TDF/FTC
Procedure: 205891 was a Phase IIb, randomized, active-controlled, double-blind trial performed at 58 sites in 12 countries across South America, North America, South Africa, and Europe. Participants were randomized 1:1:1:1 to one of four treatment arms; GSK3532795 at doses of 60 mg, 120 mg or 180 mg once daily (QD), and one reference arm with EFV at a dose of 600 mg QD, each given in combination with TDF/FTC 300/200 mg QD.
Participants attended study visits at screening, on Day 1, and once every 4 weeks from Week 4 to Week 24 (telephonic visits were conducted at Week 20). Participants were expected to continue treatment, then, through Week 96, with visit intervals every 8–12 weeks. A post-dose safety follow-up visit was also conducted 12 weeks after treatment discontinuation. Plasma HIV-1 RNA levels were quantified by the Abbott RealTime HIV-1 assay.
The FDA-defined snapshot algorithm was used for primary endpoint efficacy assessment, using the last plasma HIV-1 RNA value in the pre-defined Week 24 visit window (± 6 weeks) to determine response. The modified intent-to-treat (mITT) population consisted of participants who received at least one dose of GSK3532795 or EFV. […]

CD4+ T-cell count = assay: Change from baseline in CD4+ T-cell count; conditions: EFV arm; Week 24
Text: The primary endpoint was determination of the proportion of participants with plasma HIV-1 RNA <40 copies/mL at Week 24 after treatment with GSK3532795 or efavirenz (EFV). Secondary endpoints included mean changes from baseline in CD4+ T-cell count and mean changes in the percentage of CD4+ T-cell count over time. Secondary safety endpoints included frequency of adverse events (AEs), serious AEs (SAEs), and AEs leading to discontinuation through Week 24. Further secondary endpoints included emergence of drug resistance. Exploratory endpoints included assessment of the impact of Gag polymorphisms on the efficacy of GSK3532795. […] In addition, though Gag A364 is essentially invariant across genotypes, it was included in the primary endpoint analysis since emergent resistance to GSK3532795 (both in vitro and in Phase IIa studies) mapped, in part, to the A364V change. Thus, our analysis at the Week 24 primary endpoint was limited to these four positions. Pharmacokinetic (PK) analyses were performed to evaluate treatment exposure and assess the dose proportionality of GSK3532795 when co-administered with tenofovir disoproxil fumarate (TDF)/emtricitabine (FTC).

HIV-1 [2] = assay: Protocol-defined virologic failure and drug resistance testing (GenoSure MG, PhenoSense); conditions: EFV arm; through Week 24
Text: PDVF was defined as either: (1) confirmed HIV-1 RNA ≥40 copies/mL at any time after prior confirmed suppression to <40 copies/mL; or (2) a confirmed >1 log10 copies/mL above the nadir level. Genotypic information required for screening was generated using the GenoSure® MG assay; genotypic information and phenotypic observations during the treatment period were generated using the PhenoSense® combination resistance test.

[3] = Adverse events through Week 24
Procedure: (§1) Physical examinations, measurement of vital signs, and clinical laboratory evaluations were performed at Weeks 4, 8, 12, 16 and 24, and participants were closely monitored for AEs and SAEs throughout. AEs were classified according to MedDRA version 19.0. The severity and relationship to study drug was assessed by the local investigator.

[4] = Clinical laboratory evaluations
Procedure: as §1

[5] = GSK3532795: range across 60, 120, 180 mg arms, EFV 600 mg
[6] = GSK3532795 arms pooled, EFV 600 mg, abstract

## O=C1Nc2ccc(Cl)cc2[C@@](C#CC2CC2)(C(F)(F)F)O1 [EFV, efavirenz, reference compound]
HIV-1 [1]
  Participants achieving HIV-1 RNA <40 copies/mL: 77%
CD4+ T-cell count
  Mean change from baseline in CD4+ T-cell count (SD): 134.7 (SD 151.70) cells/μL
HIV-1 [2]
  Rate of protocol-defined virologic failure (PDVF): 2% (1/53)
[3]; EFV arm
  Mean time to onset of first diarrhea event: 73.0 days
[3]; EFV arm (shortest)
  Mean duration of first diarrhea event: 35.8 days
[3]; EFV arm vs GSK3532795 arms
  Incidence of dizziness relative to GSK3532795: ~10 fold
[3]; GSK3532795 120 mg (no action taken), EFV (led to discontinuation)
  SAE considered related to study drug: increased hepatic enzyme
[3]; [5]
  Grade 1–4-related abdominal pain: 0%
  Grade 1–4-related diarrhea: 4%
[3]; [6]
  Adverse events leading to discontinuation: 17%
  Serious adverse events: 9%
[3]; GSK3532795 arms pooled, EFV 600 mg, through Week 24
  Frequency of Grade 1–4-related AEs: 60%
[4]; EFV arm, baseline to Week 24
  Mean increase in total cholesterol: 17.6 mg/dL
  Mean increase in triglyceride levels: 41.1 mg/dL
[4]; one participant, discontinued
  Hepatic event attributed to EFV: several Grade 4 liver chemistry elevations
